The source made the active and inactive calls.
Columns and labels:
[1] = cytotoxicity in HMLE control line with eGFP shRNA, dose response, counter-screen for HMLE_sh_ECad selective toxicity project, cell-based, HMLE_sh_eGFP, luminescence (AID 463074); type: functional, Homo sapiens;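 also: HMLE human mammary epithelial cells expressing control shRNA against eGFP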
[2] = Luminescence Cell-Based Dose Retest to Confirm Inhibitors of Cancer Stem Cells. [Related pubchem assays (depositor defined):AID2717, AID2721]; type: functional; details: Homo sapiens
INS1 [3] = assay: beta cell apoptosis inhibitors, cytokine rescue, dose response, luminescence, retest (AID 449756); type: functional, cell-based; details: Rattus norvegicus;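 also: cell death triggered by IL-1 beta plus TNF-alpha plus IFN-gamma mixture; protective hits raise ATP signal compared with cytokine alone wells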
Estrogen receptor beta [4] = molecular target: T1, Estrogen receptor beta (Homo sapiens, UniProt Q92731);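 also: recombinant ER-beta bound to coactivator SRC1 peptide in presence of estradiol agonist; inhibitors block coactivator peptide binding and lower the FRET signal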
Estrogen receptor beta [5] = molecular target: T1, Estrogen receptor beta; assay: ERβ–SRC-3 coactivator interaction inhibitors, confirmation, orthogonal assay, biochemical, ELISA, streptavidin-HRP readout (AID 1060)
[6] = molecular target: T2, Voltage-gated N-type calcium channel alpha-1B subunit/Amyloid beta A4 precursor protein-binding family A member 1 (Homo sapiens, UniProt Q00975+Q02410); assay: disruptors of Mint-PDZ/N-type channel peptide interaction – biochemical, HTRF, set 2, SAR follow-up (AID 434980); type: functional
SUMO E1/E2 = SUMO E1/E2 (Homo sapiens, UniProt P63279+Q9UBE0+Q9UBT2); assay: SAR analysis of SUMOylation using HTRF in an in-Vitro dose response assay. [Related pubchem assays (depositor defined):AID2006, AID2011, AID2018, AID2069, AID2658]; type: functional
[7] = molecular target: T2, Voltage-gated N-type calcium channel alpha-1B subunit/Amyloid beta A4 precursor protein-binding family A member 1; assay: disruptors of Mint-PDZ/N-type channel peptide interaction – biochemical, HTRF, SAR follow-up (AID 2489); type: functional
INS1 [8] = assay: caspase-3/7 inhibition in cytokine-treated INS-1E, dose response, beta-cell apoptosis inhibitor project, cell-based, caspase luminescence, dry powder (AID 488848); type: functional; details: Rattus norvegicus
INS1 [9] = assay: protection from cytokine-induced mitochondrial depolarization, dose response, cell-based, INS-1E, JC-1 fluorescence ratio, dry powder (AID 488931); type: functional; details: Rattus norvegicus
INS1 [10] = assay: protection of INS-1E cells from cytokine death, dose response, ATP luminescence, dry powder (AID 488844); type: functional, cell-based; details: Rattus norvegicus
CAAX prenyl protease 2 = CAAX prenyl protease 2 (Homo sapiens, UniProt Q9Y256); assay: human Rce1 protease inhibitors, dose response, biochemical, yeast membranes, quenched-peptide fluorescence, cherry-pick (AID 588849)
[11] = molecular target: Nuclear receptor subfamily 0 group B member 1 (Homo sapiens, UniProt P51843); assay: Luminescence-based cell-based high throughput dose response assay for inhibitors of the orphan nuclear receptor subfamily 0, group B, member 1 (DAX1; NR0B1). [Related pubchem assays (depositor defined):AID504766, AID504790]; type: functional
HEK293 [12] = assay: cells; type: functional, cell-based; details: Homo sapiens
H9c2 = assay: cells; type: functional, cell-based; details: Rattus norvegicus, H9c2, Myocardium
HEK293 [13] = assay: NOD2 signaling inhibitors in MDP-stimulated cells, cell-based, uHTS, luminescence (AID 2001); type: functional; details: Homo sapiens
HEK293 [14] = assay: cells; type: functional, cell-based; details: Homo sapiens; remark: listed apart in the source
Tumor necrosis factor = Tumor necrosis factor (Homo sapiens, UniProt P01375); assay: TNFa-triggered NF-kB activation inhibitors, SAR follow-up, cell-based, revised (AID 2337); type: functional
HEK293 [15] = assay: cells; details: Homo sapiens
HEK293 [16] = assay: cells; type: functional, cell-based; details: Homo sapiens; remark: listed apart in the source
HEK293 [17] = assay: cells; type: functional, cell-based; details: Homo sapiens; remark: listed apart in the source
[18] = molecular target: Nucleotide-binding oligomerization domain-containing protein 1 (Homo sapiens, UniProt Q9Y239); assay: NOD1 signaling inhibitors, SAR follow-up, revised (AID 2333); type: functional
HEK293 [19] = assay: NOD1 signaling inhibitors, primary screen, cell-based, luminescence, uHTS (AID 1578); type: functional; details: Homo sapiens
[20] = molecular target: Nucleotide-binding oligomerization domain-containing protein 2 (Homo sapiens, UniProt Q9HC29); assay: NOD2 signaling inhibitors, cell-based, luminescence, uHTS, HEK293 (AID 1566); type: functional
Cytochrome P450 3A4 = Cytochrome P450 3A4 (Homo sapiens, UniProt P08684);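 also: CYP3A4 tested as one member of a cytochrome P450 panel screen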
Cytochrome P450 2C19 = Cytochrome P450 2C19 (Homo sapiens, UniProt P33261); assay: Cytochrome panel assay with activity outcomes. Panel member name: p450-cyp2c19 Compounds with AC50 equal or less than 10 uM are considered active; type: functional
Cytochrome P450 2D6 = Cytochrome P450 2D6 (Homo sapiens, UniProt P10635);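 also: CYP2D6 member of a cytochrome P450 panel assay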
Cytochrome P450 1A2 = molecular target: T3, Cytochrome P450 1A2 (Homo sapiens, UniProt P05177);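 also: PubChem cytochrome P450 panel assay, CYP1A2 panel member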
T3 sequence (P05177 whole entry): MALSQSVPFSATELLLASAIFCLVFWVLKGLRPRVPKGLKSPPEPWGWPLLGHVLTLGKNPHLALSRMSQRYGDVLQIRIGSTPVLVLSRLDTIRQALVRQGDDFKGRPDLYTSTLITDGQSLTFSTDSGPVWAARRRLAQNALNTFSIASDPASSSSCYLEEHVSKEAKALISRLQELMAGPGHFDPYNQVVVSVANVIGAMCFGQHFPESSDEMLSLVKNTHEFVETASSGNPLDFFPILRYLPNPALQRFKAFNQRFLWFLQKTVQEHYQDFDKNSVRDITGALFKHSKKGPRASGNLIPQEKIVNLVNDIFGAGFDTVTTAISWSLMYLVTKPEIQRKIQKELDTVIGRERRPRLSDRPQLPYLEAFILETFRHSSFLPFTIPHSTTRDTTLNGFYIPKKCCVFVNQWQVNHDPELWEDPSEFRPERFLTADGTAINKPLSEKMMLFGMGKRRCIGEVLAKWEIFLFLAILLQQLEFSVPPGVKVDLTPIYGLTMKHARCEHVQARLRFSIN

Cytochrome P450 2C9 = Cytochrome P450 2C9 (Homo sapiens, UniProt P11712)
[21] = Luminescence Cell-Based Dose Response HTS to Identify Activators of Luciferase Translation or Activity in H4 […] Cells. [Related pubchem assays: 1829 (Project Summary), 1814 (Primary HTS)]; type: functional
[22] = Luminescence Cell-Based Dose Confirmation HTS to Identify Activators of 5'UTR Stem-Loop Driven Alpha-Synuclein mRNA Translation in H4 Neuroglioblastoma Cells. [Related pubchem assays: 1829 (Project Summary), 1814 (Primary HTS)]; type: functional
HeLa = assay: HeLa cell cytotoxicity, dose response, cytotoxicity control for MITF activator project, CellTiter-Glo luminescence, cherry-pick samples (AID 540259); type: functional, cell-based; details: Homo sapiens
H4 = assay: Luminescence Cell-Based Dose Response HTS to Identify Activators of 5'UTR Stem-Loop Driven Prion Protein mRNA Translation in H4 Neuroglioblastoma Cells. [Related pubchem assays: 1829 (Project Summary), 1814 (Primary HTS)]; type: functional; details: Homo sapiens
[23] = molecular target: T4, Mannose-6-phosphate isomerase (Homo sapiens, UniProt P34949); assay: PMI enzyme inhibitors, confirmation, biochemical, fluorescence intensity (AID 1535)
T4 sequence (P34949 whole entry): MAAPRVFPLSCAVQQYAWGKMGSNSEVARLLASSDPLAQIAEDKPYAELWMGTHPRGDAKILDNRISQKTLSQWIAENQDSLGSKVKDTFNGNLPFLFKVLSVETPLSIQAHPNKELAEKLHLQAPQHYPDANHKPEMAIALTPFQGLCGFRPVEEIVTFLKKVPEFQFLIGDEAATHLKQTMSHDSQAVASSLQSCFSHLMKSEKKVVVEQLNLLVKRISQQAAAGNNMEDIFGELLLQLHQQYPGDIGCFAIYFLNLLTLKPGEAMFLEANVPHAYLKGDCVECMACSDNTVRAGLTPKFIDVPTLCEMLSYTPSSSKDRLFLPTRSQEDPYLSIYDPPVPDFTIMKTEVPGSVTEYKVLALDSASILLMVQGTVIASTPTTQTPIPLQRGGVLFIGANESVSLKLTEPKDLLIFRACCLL

Phosphomannomutase 2 = Phosphomannomutase 2 (Homo sapiens, UniProt O15305); assay: Counter screen SAR assay for PMM2 inhibitors via a fluorescence intensity assay. [Related pubchem assays (depositor defined):AID1545, AID1574]
[24] = molecular target: Beta-adrenergic receptor kinase 1 (Homo sapiens, UniProt P25098); assay: aptamer displacement from bead-bound GRK2 – biochemical, cherry pick 1, bead flow cytometry, dose response (AID 504500)
[25] = molecular target: T2, Voltage-gated N-type calcium channel alpha-1B subunit/Amyloid beta A4 precursor protein-binding family A member 1; type: protein assay
[26] = molecular target: T2, Voltage-gated N-type calcium channel alpha-1B subunit/Amyloid beta A4 precursor protein-binding family A member 1; type: protein assay; remark: listed apart in the source
[27] = molecular target: T5, Apoptotic protease-activating factor 1 (Homo sapiens, UniProt O14727); assay: activation of Apaf-1 mediated apoptosis – fluorescent, uHTS hits, dose response (AID 588554); type: functional
T5 sequence (O14727 whole entry): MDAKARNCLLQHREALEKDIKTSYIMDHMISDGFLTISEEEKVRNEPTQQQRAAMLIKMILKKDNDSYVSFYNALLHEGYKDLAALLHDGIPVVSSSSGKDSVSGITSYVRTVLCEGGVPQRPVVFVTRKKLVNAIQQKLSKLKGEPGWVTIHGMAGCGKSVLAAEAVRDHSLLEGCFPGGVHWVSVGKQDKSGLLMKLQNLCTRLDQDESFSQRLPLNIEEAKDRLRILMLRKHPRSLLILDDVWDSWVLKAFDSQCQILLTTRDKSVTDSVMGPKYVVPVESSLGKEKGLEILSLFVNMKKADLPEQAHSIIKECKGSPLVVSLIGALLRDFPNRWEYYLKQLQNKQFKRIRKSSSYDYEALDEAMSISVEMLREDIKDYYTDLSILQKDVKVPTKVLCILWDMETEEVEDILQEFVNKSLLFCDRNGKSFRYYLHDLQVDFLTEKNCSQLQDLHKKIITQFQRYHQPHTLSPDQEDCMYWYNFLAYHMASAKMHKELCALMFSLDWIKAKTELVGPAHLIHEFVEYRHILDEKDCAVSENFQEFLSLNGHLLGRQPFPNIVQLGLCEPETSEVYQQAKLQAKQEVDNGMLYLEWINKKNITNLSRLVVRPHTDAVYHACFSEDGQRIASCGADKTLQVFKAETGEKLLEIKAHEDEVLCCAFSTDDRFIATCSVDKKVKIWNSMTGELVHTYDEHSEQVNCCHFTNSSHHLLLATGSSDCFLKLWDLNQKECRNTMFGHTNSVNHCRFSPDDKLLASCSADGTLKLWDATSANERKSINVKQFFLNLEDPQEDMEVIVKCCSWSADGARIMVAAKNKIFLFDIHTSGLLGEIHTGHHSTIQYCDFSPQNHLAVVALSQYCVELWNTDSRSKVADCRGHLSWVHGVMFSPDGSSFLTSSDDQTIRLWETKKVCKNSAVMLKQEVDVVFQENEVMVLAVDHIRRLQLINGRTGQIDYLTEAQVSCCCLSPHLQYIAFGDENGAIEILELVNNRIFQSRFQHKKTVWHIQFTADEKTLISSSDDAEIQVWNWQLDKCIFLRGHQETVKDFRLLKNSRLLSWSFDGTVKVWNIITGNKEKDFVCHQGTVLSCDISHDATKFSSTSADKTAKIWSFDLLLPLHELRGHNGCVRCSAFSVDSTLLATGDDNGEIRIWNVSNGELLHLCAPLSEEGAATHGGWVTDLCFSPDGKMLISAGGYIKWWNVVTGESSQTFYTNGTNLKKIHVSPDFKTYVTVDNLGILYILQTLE

T2 sequence (Q00975 whole entry): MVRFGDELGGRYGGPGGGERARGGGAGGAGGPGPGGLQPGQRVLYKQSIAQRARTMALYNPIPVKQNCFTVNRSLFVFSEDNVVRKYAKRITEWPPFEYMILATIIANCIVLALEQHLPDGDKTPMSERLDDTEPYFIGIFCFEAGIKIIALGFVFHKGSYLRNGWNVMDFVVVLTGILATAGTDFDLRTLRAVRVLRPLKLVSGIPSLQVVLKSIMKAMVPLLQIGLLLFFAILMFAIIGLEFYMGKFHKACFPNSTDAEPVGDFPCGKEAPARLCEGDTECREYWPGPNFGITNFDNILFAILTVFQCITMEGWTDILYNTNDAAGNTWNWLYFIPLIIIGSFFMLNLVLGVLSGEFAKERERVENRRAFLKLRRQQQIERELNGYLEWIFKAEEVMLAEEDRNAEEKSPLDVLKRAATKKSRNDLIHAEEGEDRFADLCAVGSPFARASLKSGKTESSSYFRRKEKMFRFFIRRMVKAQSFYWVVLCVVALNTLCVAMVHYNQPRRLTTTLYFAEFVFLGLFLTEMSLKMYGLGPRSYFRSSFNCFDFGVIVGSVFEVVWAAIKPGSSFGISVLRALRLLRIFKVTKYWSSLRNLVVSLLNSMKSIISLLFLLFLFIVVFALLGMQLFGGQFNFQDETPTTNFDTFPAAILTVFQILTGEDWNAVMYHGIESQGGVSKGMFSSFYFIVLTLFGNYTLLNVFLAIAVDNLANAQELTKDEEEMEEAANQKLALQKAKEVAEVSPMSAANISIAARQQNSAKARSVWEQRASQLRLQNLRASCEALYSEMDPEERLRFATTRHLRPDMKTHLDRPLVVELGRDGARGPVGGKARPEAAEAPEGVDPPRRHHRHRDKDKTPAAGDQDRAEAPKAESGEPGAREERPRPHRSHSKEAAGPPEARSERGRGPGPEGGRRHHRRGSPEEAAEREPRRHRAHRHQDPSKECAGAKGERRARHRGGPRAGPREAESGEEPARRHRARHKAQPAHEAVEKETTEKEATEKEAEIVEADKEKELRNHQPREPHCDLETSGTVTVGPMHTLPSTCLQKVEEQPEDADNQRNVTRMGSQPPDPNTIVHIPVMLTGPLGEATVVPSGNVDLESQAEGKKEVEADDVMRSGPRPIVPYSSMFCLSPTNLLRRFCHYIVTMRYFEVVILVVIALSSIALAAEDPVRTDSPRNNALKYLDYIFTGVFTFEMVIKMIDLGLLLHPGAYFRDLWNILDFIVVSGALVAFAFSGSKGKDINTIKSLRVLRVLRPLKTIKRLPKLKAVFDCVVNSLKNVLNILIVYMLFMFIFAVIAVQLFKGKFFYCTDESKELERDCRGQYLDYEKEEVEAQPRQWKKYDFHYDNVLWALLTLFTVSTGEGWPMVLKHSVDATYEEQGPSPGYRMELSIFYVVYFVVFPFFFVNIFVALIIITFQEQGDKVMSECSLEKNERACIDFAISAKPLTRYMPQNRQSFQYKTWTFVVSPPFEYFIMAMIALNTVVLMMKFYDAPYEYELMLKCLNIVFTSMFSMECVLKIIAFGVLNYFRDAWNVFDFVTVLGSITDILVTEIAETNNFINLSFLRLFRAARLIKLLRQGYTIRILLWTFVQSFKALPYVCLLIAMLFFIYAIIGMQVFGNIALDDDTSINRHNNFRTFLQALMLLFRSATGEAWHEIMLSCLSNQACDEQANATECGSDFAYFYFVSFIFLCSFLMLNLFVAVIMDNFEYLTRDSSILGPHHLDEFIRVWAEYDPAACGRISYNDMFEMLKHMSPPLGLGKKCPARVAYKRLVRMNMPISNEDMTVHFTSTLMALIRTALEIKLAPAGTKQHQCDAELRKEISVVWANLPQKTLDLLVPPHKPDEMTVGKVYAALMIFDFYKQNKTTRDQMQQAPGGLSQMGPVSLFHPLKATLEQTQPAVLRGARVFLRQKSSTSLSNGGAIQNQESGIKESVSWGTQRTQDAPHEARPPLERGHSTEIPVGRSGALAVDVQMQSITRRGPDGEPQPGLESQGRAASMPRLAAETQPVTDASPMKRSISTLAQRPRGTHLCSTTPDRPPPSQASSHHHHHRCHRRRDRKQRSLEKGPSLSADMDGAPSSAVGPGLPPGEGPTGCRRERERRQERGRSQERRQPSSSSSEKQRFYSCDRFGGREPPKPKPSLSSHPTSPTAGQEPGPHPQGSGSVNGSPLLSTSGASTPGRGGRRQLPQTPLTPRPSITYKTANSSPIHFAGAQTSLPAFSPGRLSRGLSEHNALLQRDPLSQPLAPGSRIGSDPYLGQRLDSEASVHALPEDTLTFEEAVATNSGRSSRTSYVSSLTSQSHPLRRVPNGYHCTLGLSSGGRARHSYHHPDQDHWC
T2 sequence (Q02410 whole entry): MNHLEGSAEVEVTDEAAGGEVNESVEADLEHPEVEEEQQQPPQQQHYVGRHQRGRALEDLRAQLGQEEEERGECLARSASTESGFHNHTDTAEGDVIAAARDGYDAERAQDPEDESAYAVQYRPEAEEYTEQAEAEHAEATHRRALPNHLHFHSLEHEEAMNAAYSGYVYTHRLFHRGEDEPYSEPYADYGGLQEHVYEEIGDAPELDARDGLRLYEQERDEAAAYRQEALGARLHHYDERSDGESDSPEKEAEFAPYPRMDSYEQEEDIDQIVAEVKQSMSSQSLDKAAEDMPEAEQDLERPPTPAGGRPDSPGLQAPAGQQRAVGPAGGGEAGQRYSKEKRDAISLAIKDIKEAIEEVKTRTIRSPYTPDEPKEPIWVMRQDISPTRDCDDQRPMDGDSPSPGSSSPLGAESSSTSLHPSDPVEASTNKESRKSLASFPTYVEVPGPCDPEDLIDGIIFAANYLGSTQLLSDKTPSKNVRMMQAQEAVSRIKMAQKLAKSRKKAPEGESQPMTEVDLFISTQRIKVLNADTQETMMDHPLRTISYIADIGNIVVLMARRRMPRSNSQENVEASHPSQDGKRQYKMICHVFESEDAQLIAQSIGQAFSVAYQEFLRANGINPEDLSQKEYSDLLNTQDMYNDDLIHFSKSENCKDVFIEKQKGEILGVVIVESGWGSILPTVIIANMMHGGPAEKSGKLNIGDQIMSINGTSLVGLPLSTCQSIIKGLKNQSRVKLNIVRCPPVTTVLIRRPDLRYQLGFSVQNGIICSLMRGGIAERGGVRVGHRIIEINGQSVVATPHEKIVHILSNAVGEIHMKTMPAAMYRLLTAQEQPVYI
T1 sequence (Q92731 whole entry): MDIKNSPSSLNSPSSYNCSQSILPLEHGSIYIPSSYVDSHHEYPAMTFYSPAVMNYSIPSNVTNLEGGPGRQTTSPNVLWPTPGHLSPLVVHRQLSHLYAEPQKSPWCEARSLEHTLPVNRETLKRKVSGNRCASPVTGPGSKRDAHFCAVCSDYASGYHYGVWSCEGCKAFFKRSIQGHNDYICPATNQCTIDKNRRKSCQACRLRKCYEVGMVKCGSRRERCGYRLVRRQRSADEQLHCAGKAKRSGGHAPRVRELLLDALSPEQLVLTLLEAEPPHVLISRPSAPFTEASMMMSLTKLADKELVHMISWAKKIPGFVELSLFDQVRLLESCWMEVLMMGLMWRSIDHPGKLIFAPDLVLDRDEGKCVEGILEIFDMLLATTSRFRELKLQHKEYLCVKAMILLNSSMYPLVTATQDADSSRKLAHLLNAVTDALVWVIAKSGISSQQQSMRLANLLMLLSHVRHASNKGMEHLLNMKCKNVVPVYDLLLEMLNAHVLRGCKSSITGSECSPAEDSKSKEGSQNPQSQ
Sequence of Cytochrome P450 3A4 (P08684 whole entry): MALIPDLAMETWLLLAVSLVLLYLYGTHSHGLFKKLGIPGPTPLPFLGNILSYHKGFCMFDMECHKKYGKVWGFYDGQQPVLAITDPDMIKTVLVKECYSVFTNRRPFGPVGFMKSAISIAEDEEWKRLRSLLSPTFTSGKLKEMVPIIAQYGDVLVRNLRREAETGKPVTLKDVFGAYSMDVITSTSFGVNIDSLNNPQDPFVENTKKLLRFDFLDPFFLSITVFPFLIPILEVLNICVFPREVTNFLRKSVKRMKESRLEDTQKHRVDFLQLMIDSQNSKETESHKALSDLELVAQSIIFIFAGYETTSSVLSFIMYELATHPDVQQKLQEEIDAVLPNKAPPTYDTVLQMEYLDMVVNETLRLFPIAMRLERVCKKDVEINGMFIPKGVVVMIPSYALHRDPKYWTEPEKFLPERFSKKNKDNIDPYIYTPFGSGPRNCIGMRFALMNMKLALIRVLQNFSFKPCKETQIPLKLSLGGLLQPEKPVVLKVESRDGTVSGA
Sequence of Tumor necrosis factor (P01375 whole entry): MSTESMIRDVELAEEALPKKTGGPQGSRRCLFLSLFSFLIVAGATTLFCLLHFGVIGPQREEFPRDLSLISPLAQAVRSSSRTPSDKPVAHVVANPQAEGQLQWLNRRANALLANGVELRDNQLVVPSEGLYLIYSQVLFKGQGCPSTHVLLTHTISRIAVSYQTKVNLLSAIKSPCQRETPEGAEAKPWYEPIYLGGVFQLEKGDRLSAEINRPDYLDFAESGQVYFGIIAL
Sequence of Cytochrome P450 2C9 (P11712 whole entry): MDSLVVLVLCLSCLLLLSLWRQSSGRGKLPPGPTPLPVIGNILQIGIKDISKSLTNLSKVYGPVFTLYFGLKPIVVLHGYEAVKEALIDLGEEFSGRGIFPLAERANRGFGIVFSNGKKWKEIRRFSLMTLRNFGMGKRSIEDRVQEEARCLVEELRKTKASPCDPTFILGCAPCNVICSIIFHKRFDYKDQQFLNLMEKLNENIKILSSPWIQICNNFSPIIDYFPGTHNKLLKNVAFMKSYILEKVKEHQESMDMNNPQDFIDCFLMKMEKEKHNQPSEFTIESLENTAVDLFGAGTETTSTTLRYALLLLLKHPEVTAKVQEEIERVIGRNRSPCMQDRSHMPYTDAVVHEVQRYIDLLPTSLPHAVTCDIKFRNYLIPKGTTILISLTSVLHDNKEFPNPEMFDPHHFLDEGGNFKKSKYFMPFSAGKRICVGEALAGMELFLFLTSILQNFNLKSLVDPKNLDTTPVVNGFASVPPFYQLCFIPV

## C=CC[n+]1c(-c2ccc(OCC)cc2)csc1NNC(=O)Nc1ccccc1
[1]
  AC50: 24.7 µM (active)
[2]
  AC50: 88.4 µM (active)
INS1 [3]
  AC50: 6.63 µM (active)

## COc1ccc(CNC(=O)COC(=O)c2cc(-c3ccco3)nc3ccccc23)cc1
Estrogen receptor beta [4]
  IC50: < 1.56 µM (active)
Estrogen receptor beta [5]
  IC50: > 50 µM (not active)
[6]
  IC50: 11.4 µM (active)
SUMO E1/E2
  IC50: 6.59 µM (active)
[7]
  IC50: > 56.8 µM (inactive)

## C[C@@H]1CN([C@@H](C)CO)C(=O)c2cccc(NC(=O)Nc3ccc(F)cc3)c2O[C@H]1CN(C)S(=O)(=O)c1ccc(F)cc1
INS1 [8]
  AC50: > 195 µM (inactive)
INS1 [9]
  AC50: 63.3 µM (active)
INS1 [10]
  AC50: 72 µM (active)

## COc1cccc(/C=C/C(=O)OCC(=O)Nc2ccc(Cl)c(S(=O)(=O)N(C)C)c2)c1OC
CAAX prenyl protease 2
  AC50: 20.9 µM (active)

## CCOc1ccc2nc(NS(=O)(=O)Cc3ccccc3)sc2c1
[11]
  IC50: > 67.5 µM (inactive)
HEK293 [12]
  IC50: > 67.5 µM (inactive)

## Cc1c(O)ccc2c(-c3ccccc3)cc(=O)oc12
H9c2
  IC50: > 79 µM (inactive)
HEK293 [13]
  IC50: 6.85 µM (active)
HEK293 [14]
  IC50: > 20 µM (inactive)
Tumor necrosis factor
  IC50: 6.62 µM (active)
HEK293 [15]
  IC50: > 20 µM (inactive)
HEK293 [16]
  IC50: 5.78 µM (active)
HEK293 [17]
  IC50: > 20 µM (inactive)
[18]
  IC50: 6.53 µM (active)
HEK293 [19]
  EC50: 16.3 µM (active)
[20]
  EC50: 4.67 µM (active)

## N#Cc1cccc(NC(=O)N2CC[C@@]3(CCCN(C(=O)Oc4ccccc4)C3)C2)c1
Cytochrome P450 3A4
  AC50: 2.51 µM (inconclusive)
Cytochrome P450 2C19
  AC50: inconclusive
Cytochrome P450 2D6
  AC50: inconclusive
Cytochrome P450 1A2
  AC50: inconclusive
Cytochrome P450 2C9
  AC50: inconclusive

## COc1ccc(/C(O)=C/C=N/c2cccc(C)n2)cc1OC
[21]
  EC50: 0.122 µM (active)
[22]
  EC50: 0.146 µM (active)
HeLa
  AC50: 50.8 µM (active)
H4
  EC50: 48.3 µM (active)

## Clc1nss/c1=N\c1nc2ccccc2s1
[23]
  IC50: > 100 µM (inactive)
Phosphomannomutase 2
  IC50: > 100 µM (inactive)

## CCCC[N+](C)(C)CCC(=O)NC(C)(C)CS(=O)(=O)[O-]
[24]
  EC50: 4.53 µM (active)

## O=C(CCS(=O)(=O)c1ccc(Br)cc1)NCc1ccco1
[25]
  IC50: > 50 µM (inactive)
[26]
  IC50: 12.1 µM (active)
[27]
  EC50: 23.4 µM (active)

Reference: ChEMBL document CHEMBL1201862, “PubChem BioAssay data set” (2004)
